This is an account of results in patent US20230183292A1, “IMMUNOMODULATORS” (priority 2020, published 2023).

Like-named read-outs stand apart in the source and are kept apart here. Starred links: 1 amine or outer side, 2 acyl side, 3 side chain; linkers in the order of their positions; H or OH if unused. Positions of bridges follow the written chain, without caps; N, C: chain ends. Non-standard residues stand in square brackets, D forms with d. Residues, ends and D or L forms follow the SMILES beside them. Groups on a side chain read outwards from the residue. *: point of attachment. X9 = C[C@H](CCC(=O)O)[C@H]1CC[C@H]2[C@@H]3C(O)C[C@@H]4CC(NCC[C@H](N[*:1])C(=O)[*:2])CC[C@]4(C)[C@H]3CC(=O)[C@]12C; X8 = C[C@H](CCC(=O)O)[C@H]1CC[C@H]2[C@@H]3C(O)C[C@@H]4CC(NC[C@H](N[*:1])C(=O)[*:2])CC[C@]4(C)[C@H]3CC(=O)[C@]12C; Ursodeoxycholyl = C[C@H](CCC(=O)*)[C@H]1CC[C@H]2[C@@H]3[C@@H](O)C[C@@H]4C[C@H](O)CC[C@]4(C)[C@H]3CC[C@]12C; Cholyl = C[C@H](CCC(=O)*)[C@H]1CC[C@H]2[C@@H]3[C@H](O)C[C@@H]4C[C@H](O)CC[C@]4(C)[C@H]3C[C@H](O)[C@]12C; X35 = O=C(Cn1cc(C[C@H](N[*:1])C(=O)[*:2])c2ccccc21)NCC(F)(F)F; X27 = O=C(Cn1cc(C[C@H](N[*:1])C(=O)[*:2])c2ccccc21)Oc1ccccc1; X30 = CCCCCCOC(=O)Cn1cc(C[C@H](N[*:1])C(=O)[*:2])c2ccccc21; X4 = O=C(Cn1cc(C[C@H](N[*:1])C(=O)[*:2])c2ccccc21)OCCOCCO; X34 = CCCCOC(=O)Cn1cc(C[C@H](N[*:1])C(=O)[*:2])c2ccccc21; X7 = NCCCCNC(=O)Cn1cc(C[C@H](N[*:1])C(=O)[*:2])c2ccccc21; Trp(1-CH2COOH) = N[C@@H](Cc1cn(CC(=O)O)c2ccccc12)C(=O)O; X37 = O=C(Cn1cc(C[C@H](N[*:1])C(=O)[*:2])c2ccccc21)OCCO; X1 = NCCNC(=O)Cn1cc(C[C@H](N[*:1])C(=O)[*:2])c2ccccc21; Pro(4R-Me) = C[C@H]1CN[C@H](C(=O)O)C1; Hyp = O=C(O)[C@@H]1C[C@@H](O)CN1; NMeNle = CCCC[C@H](NC)C(=O)O; NMeA = CN[C@@H](C)C(=O)O; Dab = NCC[C@H](N)C(=O)O; Dap = NC[C@H](N)C(=O)O

The target in the test is T1, PD-1/PD-L1 (Homo sapiens, UniProt Q9NZQ7).
T1 construct: TVMV protease site (C); made in house; host or cells: HEK293T cells
Put plainly: PD-1/PD-L1 Homogenous Time-Resolved Fluorescence (HTRF) binding assay. The settings on record: PD-1-Ig 20 nM. In short, it runs like this:
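Inhibitors pre-incubated 15 min with PD-L1-His (10 nM final) in dPBS, 0.1% BSA, 0.05% Tween-20, then 15 min with PD-1-Ig (20 nM final). Eu-cryptate anti-Ig (1 nM) and APC anti-His (20 nM) added, 30 min equilibration; HTRF 665/620 nm ratio. Human ECD proteins from HEK293T.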

Setting [1] is: PD-L1-His 10 nM, read-out: HTRF IC50.

T1 sequence (Q9NZQ7 18-239): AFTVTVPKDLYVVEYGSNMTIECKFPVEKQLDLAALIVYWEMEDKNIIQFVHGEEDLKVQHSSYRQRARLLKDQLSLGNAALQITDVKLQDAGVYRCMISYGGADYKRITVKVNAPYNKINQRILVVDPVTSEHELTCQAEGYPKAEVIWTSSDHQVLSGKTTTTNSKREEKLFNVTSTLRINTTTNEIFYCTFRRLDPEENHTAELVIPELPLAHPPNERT

The IC50 is the point on the concentration scale where inhibition reaches its midpoint. Take `CCCC[C@H]1C(=O)N(C)[C@@H](CCCC)C(=O)N[C@@H](CC(C)C)C(=O)N[C@H](C(=O)NCC(N)=O)CSCC(=O)N[C@@H](Cc2ccc(O)cc2)C(=O)N(C)[C@@H](C)C(=O)N[C@@H](CC(N)=O)C(=O)N2CCC[C@H]2C(=O)N[C@@H](CNC(=O)CNC(=O)CC[C@@H](C)[C@H]2CC[C@H]3[C@@H]4[C@H](O)C[C@@H]5C[C@H](O)CC[C@]5(C)[C@H]4C[C@H](O)[C@]23C)C(=O)N[C@@H](CC(C)C)C(=O)N2C[C@H](C)C[C@H]2C(=O)N[C@@H](Cc2c[nH]c3ccccc23)C(=O)N[C@@H](CCNC(=O)CNC(=O)CC[C@@H](C)[C@H]2CC[C@H]3[C@@H]4[C@H](O)C[C@@H]5C[C@H](O)CC[C@]5(C)[C@H]4C[C@H](O)[C@]23C)C(=O)N[C@@H](Cc2cn(CC(=O)NCC(F)(F)F)c3ccccc23)C(=O)N1C` [Example 2030] ({CH2CO}-Y[NMeA]NP[Dap]([Gly-Cholyl])L[Pro(4R-Me)]W[Dab]([Gly-Cholyl])[X35][NMeNle][NMeNle]LCG-NH2; thioether N-14): under setting [1], the IC50 worked out at 5.6 µM. Turning to `CCCC[C@H]1C(=O)N(C)[C@@H](CCCC)C(=O)N[C@@H](CC(C)C)C(=O)N[C@H](C(=O)NCC(N)=O)CSCC(=O)N[C@@H](Cc2ccc(O)cc2)C(=O)N(C)[C@@H](C)C(=O)N[C@@H](CC(N)=O)C(=O)N2CCC[C@H]2C(=O)N[C@@H](CNC(=O)CNC(=O)CC[C@@H](C)[C@H]2CC[C@H]3[C@@H]4[C@H](O)C[C@@H]5C[C@H](O)CC[C@]5(C)[C@H]4C[C@H](O)[C@]23C)C(=O)N[C@@H](CC(C)C)C(=O)N2C[C@H](C)C[C@H]2C(=O)N[C@@H](Cc2c[nH]c3ccccc23)C(=O)N[C@@H](CCNC(=O)CNC(=O)CC[C@@H](C)[C@H]2CC[C@H]3[C@@H]4[C@H](O)C[C@@H]5C[C@H](O)CC[C@]5(C)[C@H]4C[C@H](O)[C@]23C)C(=O)N[C@@H](Cc2cn(CC(=O)NCCCCN)c3ccccc23)C(=O)N1C` [Example 2031] ({CH2CO}-Y[NMeA]NP[Dap]([Gly-Cholyl])L[Pro(4R-Me)]W[Dab]([Gly-Cholyl])[X7][NMeNle][NMeNle]LCG-NH2; thioether N-14), the concentration for half-maximal inhibition (IC50) under setting [1] is 0.49 µM.

As to `CCCC[C@H]1C(=O)N(C)[C@@H](CCCC)C(=O)N[C@@H](CC(C)C)C(=O)N[C@H](C(=O)NCC(N)=O)CSCC(=O)N[C@@H](Cc2ccc(O)cc2)C(=O)N(C)[C@@H](C)C(=O)N[C@@H](CC(N)=O)C(=O)N2CCC[C@H]2C(=O)N[C@@H](CNC(=O)CC[C@@H](C)[C@H]2CC[C@H]3[C@@H]4[C@@H](O)C[C@@H]5C[C@H](O)CC[C@]5(C)[C@H]4CC[C@]23C)C(=O)N[C@@H](CC(C)C)C(=O)N2C[C@H](C)C[C@H]2C(=O)N[C@@H](Cc2c[nH]c3ccccc23)C(=O)N[C@@H](CCNC(=O)CC[C@@H](C)[C@H]2CC[C@H]3[C@@H]4[C@@H](O)C[C@@H]5C[C@H](O)CC[C@]5(C)[C@H]4CC[C@]23C)C(=O)N[C@@H](Cc2cn(CC(=O)NCCN)c3ccccc23)C(=O)N1C` [Example 2032] ({CH2CO}-Y[NMeA]NP[Dap](Ursodeoxycholyl)L[Pro(4R-Me)]W[Dab](Ursodeoxycholyl)[X1][NMeNle][NMeNle]LCG-NH2; thioether N-14), the IC50 under setting [1] came out at 0.46 µM. The same measure, in the same setting: the same measure for `CCCCOC(=O)Cn1cc(C[C@@H]2NC(=O)[C@H](CCNC(=O)CNC(=O)CC[C@@H](C)[C@H]3CC[C@H]4[C@@H]5[C@H](O)C[C@@H]6C[C@H](O)CC[C@]6(C)[C@H]5C[C@H](O)[C@]34C)NC(=O)[C@H](Cc3c[nH]c4ccccc34)NC(=O)[C@@H]3C[C@@H](C)CN3C(=O)[C@H](CC(C)C)NC(=O)[C@H](CNC(=O)CNC(=O)CC[C@@H](C)[C@H]3CC[C@H]4[C@@H]5[C@H](O)C[C@@H]6C[C@H](O)CC[C@]6(C)[C@H]5C[C@H](O)[C@]34C)NC(=O)[C@@H]3CCCN3C(=O)[C@H](CC(N)=O)NC(=O)[C@H](C)N(C)C(=O)[C@H](Cc3ccc(O)cc3)NC(=O)CSC[C@@H](C(=O)NCC(N)=O)NC(=O)[C@H](CC(C)C)NC(=O)[C@H](CCCC)N(C)C(=O)[C@H](CCCC)N(C)C2=O)c2ccccc21` [Example 2033] ({CH2CO}-Y[NMeA]NP[Dap]([Gly-Cholyl])L[Pro(4R-Me)]W[Dab]([Gly-Cholyl])[X34][NMeNle][NMeNle]LCG-NH2; thioether N-14): 0.0042 µM; for `CCCCCCOC(=O)Cn1cc(C[C@@H]2NC(=O)[C@H](CCNC(=O)CNC(=O)CC[C@@H](C)[C@H]3CC[C@H]4[C@@H]5[C@H](O)C[C@@H]6C[C@H](O)CC[C@]6(C)[C@H]5C[C@H](O)[C@]34C)NC(=O)[C@H](Cc3c[nH]c4ccccc34)NC(=O)[C@@H]3C[C@@H](C)CN3C(=O)[C@H](CC(C)C)NC(=O)[C@H](CNC(=O)CNC(=O)CC[C@@H](C)[C@H]3CC[C@H]4[C@@H]5[C@H](O)C[C@@H]6C[C@H](O)CC[C@]6(C)[C@H]5C[C@H](O)[C@]34C)NC(=O)[C@@H]3CCCN3C(=O)[C@H](CC(N)=O)NC(=O)[C@H](C)N(C)C(=O)[C@H](Cc3ccc(O)cc3)NC(=O)CSC[C@@H](C(=O)NCC(N)=O)NC(=O)[C@H](CC(C)C)NC(=O)[C@H](CCCC)N(C)C(=O)[C@H](CCCC)N(C)C2=O)c2ccccc21` [Example 2034] ({CH2CO}-Y[NMeA]NP[Dap]([Gly-Cholyl])L[Pro(4R-Me)]W[Dab]([Gly-Cholyl])[X30][NMeNle][NMeNle]LCG-NH2; thioether N-14): 5.2 µM; for `CCCC[C@H]1C(=O)N(C)[C@@H](CCCC)C(=O)N[C@@H](CC(C)C)C(=O)N[C@H](C(=O)NCC(N)=O)CSCC(=O)N[C@@H](Cc2ccc(O)cc2)C(=O)N(C)[C@@H](C)C(=O)N[C@@H](CC(N)=O)C(=O)N2CCC[C@H]2C(=O)N[C@@H](CNC(=O)CNC(=O)CC[C@@H](C)[C@H]2CC[C@H]3[C@@H]4[C@H](O)C[C@@H]5C[C@H](O)CC[C@]5(C)[C@H]4C[C@H](O)[C@]23C)C(=O)N[C@@H](CC(C)C)C(=O)N2C[C@H](C)C[C@H]2C(=O)N[C@@H](Cc2c[nH]c3ccccc23)C(=O)N[C@@H](CCNC(=O)CNC(=O)CC[C@@H](C)[C@H]2CC[C@H]3[C@@H]4[C@H](O)C[C@@H]5C[C@H](O)CC[C@]5(C)[C@H]4C[C@H](O)[C@]23C)C(=O)N[C@@H](Cc2cn(CC(=O)OCCO)c3ccccc23)C(=O)N1C` [Example 2035] ({CH2CO}-Y[NMeA]NP[Dap]([Gly-Cholyl])L[Pro(4R-Me)]W[Dab]([Gly-Cholyl])[X37][NMeNle][NMeNle]LCG-NH2; thioether N-14): 0.83 µM.

For `CCCC[C@H]1C(=O)N(C)[C@@H](CCCC)C(=O)N[C@@H](CC(C)C)C(=O)N[C@H](C(=O)NCC(N)=O)CSCC(=O)N[C@@H](Cc2ccc(O)cc2)C(=O)N(C)[C@@H](C)C(=O)N[C@@H](CC(N)=O)C(=O)N2CCC[C@H]2C(=O)N[C@@H](CNC(=O)CNC(=O)CC[C@@H](C)[C@H]2CC[C@H]3[C@@H]4[C@H](O)C[C@@H]5C[C@H](O)CC[C@]5(C)[C@H]4C[C@H](O)[C@]23C)C(=O)N[C@@H](CC(C)C)C(=O)N2C[C@H](C)C[C@H]2C(=O)N[C@@H](Cc2c[nH]c3ccccc23)C(=O)N[C@@H](CCNC(=O)CNC(=O)CC[C@@H](C)[C@H]2CC[C@H]3[C@@H]4[C@H](O)C[C@@H]5C[C@H](O)CC[C@]5(C)[C@H]4C[C@H](O)[C@]23C)C(=O)N[C@@H](Cc2cn(CC(=O)OCCOCCO)c3ccccc23)C(=O)N1C` [Example 2036] ({CH2CO}-Y[NMeA]NP[Dap]([Gly-Cholyl])L[Pro(4R-Me)]W[Dab]([Gly-Cholyl])[X4][NMeNle][NMeNle]LCG-NH2; thioether N-14), the half-inhibitory concentration (IC50) under setting [1] came out at 1 µM. Take `CCCC[C@H]1C(=O)N(C)[C@@H](CCCC)C(=O)N[C@@H](CC(C)C)C(=O)N[C@H](C(=O)NCC(N)=O)CSCC(=O)N[C@@H](Cc2ccc(O)cc2)C(=O)N(C)[C@@H](C)C(=O)N[C@@H](CC(N)=O)C(=O)N2CCC[C@H]2C(=O)N[C@@H](CNC(=O)CNC(=O)CC[C@@H](C)[C@H]2CC[C@H]3[C@@H]4[C@H](O)C[C@@H]5C[C@H](O)CC[C@]5(C)[C@H]4C[C@H](O)[C@]23C)C(=O)N[C@@H](CC(C)C)C(=O)N2C[C@H](O)C[C@H]2C(=O)N[C@@H](Cc2c[nH]c3ccccc23)C(=O)N[C@@H](CCNC(=O)CNC(=O)CC[C@@H](C)[C@H]2CC[C@H]3[C@@H]4[C@H](O)C[C@@H]5C[C@H](O)CC[C@]5(C)[C@H]4C[C@H](O)[C@]23C)C(=O)N[C@@H](Cc2cn(CC(=O)Oc3ccccc3)c3ccccc23)C(=O)N1C` [Example 2037] ({CH2CO}-Y[NMeA]NP[Dap]([Gly-Cholyl])L[Hyp]W[Dab]([Gly-Cholyl])[X27][NMeNle][NMeNle]LCG-NH2; thioether N-14): the IC50 (HTRF IC50, PD-L1-His 10 nM) stood at 0.42 µM. As to `CCCC[C@H]1C(=O)N(C)[C@@H](CCCC)C(=O)N[C@@H](CC(C)C)C(=O)N[C@H](C(=O)NCC(N)=O)CSCC(=O)N[C@@H](Cc2ccc(O)cc2)C(=O)N(C)[C@@H](C)C(=O)N[C@@H](CC(N)=O)C(=O)N2CCC[C@H]2C(=O)N[C@@H](CNC2CC[C@@]3(C)[C@@H](C2)CC(O)[C@@H]2[C@@H]3CC(=O)[C@]3(C)[C@@H]([C@H](C)CCC(=O)O)CC[C@@H]23)C(=O)N[C@@H](CC(C)C)C(=O)N2C[C@H](O)C[C@H]2C(=O)N[C@@H](Cc2c[nH]c3ccccc23)C(=O)N[C@@H](CCNC2CC[C@@]3(C)[C@@H](C2)CC(O)[C@@H]2[C@@H]3CC(=O)[C@]3(C)[C@@H]([C@H](C)CCC(=O)O)CC[C@@H]23)C(=O)N[C@@H](Cc2cn(CC(=O)O)c3ccccc23)C(=O)N1C` (stereo partly drawn) [Example 3001] ({CH2CO}-Y[NMeA]NP[X8]L[Hyp]W[X9][Trp(1-CH2COOH)][NMeNle][NMeNle]LCG-NH2; thioether N-14), the IC50 under setting [1] was found to be 0.02 µM.
